Experimental findings from ChEMBL document CHEMBL3132789, “Effect of the 4-substituted phenylalanine moiety of sansalvamide A peptide on antitumor activity” (Medchemcomm, 2014) are described below.

≈ marks a conversion by molar mass, not a printed value. Calls of active or inactive are those of the source. The calls are words filed in the database; no cut-off is given here. Square brackets hold non-standard residues; d marks the D form. Peptide text beside a SMILES is read from it. Phe(4-Br) = N[C@@H](Cc1ccc(Br)cc1)C(=O)O; Phe(4-Cl) = N[C@@H](Cc1ccc(Cl)cc1)C(=O)O; Phe(4-F) = N[C@@H](Cc1ccc(F)cc1)C(=O)O; Phe(4-I) = N[C@@H](Cc1ccc(I)cc1)C(=O)O; Hica(2S) = CC(C)C[C@H](O)C(=O)O

For data set [1], the system named is HT-29. Briefly: Cytotoxicity against human HT-29 cells assessed as growth inhibition at 20 ug/ml after 72 hrs by [3H]-thymidine uptake assay. It counts as functional. To be noted: read-out: GI.
The test system of data set [2] is MDA-MB-231. Briefly: Cytotoxicity against human MDA-MB-231 cells assessed as growth inhibition at 20 ug/ml after 72 hrs by [3H]-thymidine uptake assay. It counts as functional. To be noted: read-out: GI.
The subject of data set [3] is A549. Put plainly: Cytotoxicity against human A549 cells assessed as growth inhibition at 20 ug/ml after 72 hrs by [3H]-thymidine uptake assay. It counts as functional. To be noted: read-out: GI.
For data set [4], the system named is HCT-116. Briefly: Cytotoxicity against human HCT116 cells after 72 hrs by [3H]-thymidine uptake assay. It counts as functional, cell-based.
In data set [5] the test system is HCT-15. Put plainly: Cytotoxicity against human HCT15 cells assessed as growth inhibition at 20 ug/ml after 72 hrs by [3H]-thymidine uptake assay. It counts as functional. As to conditions: read-out: GI.
In data set [6] the test system is K562. Put plainly: Cytotoxicity against human K562 cells assessed as growth inhibition at 20 ug/ml after 72 hrs by [3H]-thymidine uptake assay. It counts as functional. To be noted: read-out: GI.
Data set [7] has as its system HCT-15. Briefly: Cytotoxicity against human HCT15 cells assessed as growth inhibition at 2 ug/ml after 72 hrs by [3H]-thymidine uptake assay. To be noted: read-out: GI. It counts as functional.
Data set [8] deals with HeLa. Briefly: Induction of apoptosis in human HeLa cells assessed as decrease in cell density at 1.8 ug/ml after 24 hrs by light microscopy analysis. It counts as functional, cell-based.
For data set [9], the system named is HeLa. Briefly: Cytotoxicity against human HeLa cells assessed as growth inhibition at 2 ug/ml after 72 hrs by [3H]-thymidine uptake assay. It counts as functional. As to conditions: read-out: GI.
Data set [10] deals with K562. Briefly: Cytotoxicity against human K562 cells after 72 hrs by [3H]-thymidine uptake assay. It counts as functional, cell-based.
For data set [11], the system named is A549. Put plainly: Cytotoxicity against human A549 cells assessed as growth inhibition at 2 ug/ml after 72 hrs by [3H]-thymidine uptake assay. It counts as functional. To be noted: read-out: GI.
Data set [12] relates to K562. Briefly: Cytotoxicity against human K562 cells assessed as growth inhibition at 2 ug/ml after 72 hrs by [3H]-thymidine uptake assay. As to conditions: read-out: GI. It counts as functional.
The nature of data set [13]: Induction of apoptosis in human VSMC cells assessed as morphological changes at 1.8 ug/ml after 24 hrs by light microscopy analysis. It counts as cell-based.
The subject of data set [14] is HT-29. Briefly: Cytotoxicity against human HT-29 cells after 72 hrs by [3H]-thymidine uptake assay. It counts as functional, cell-based.
Data set [15] deals with HeLa. Briefly: Induction of apoptosis in human HeLa cells assessed as membrane blebbing and nuclear fragmentation at 1.8 ug/ml after 24 hrs by light microscopy analysis. It counts as functional, cell-based.
The subject of data set [16] is HeLa. Put plainly: Induction of apoptosis in human HeLa cells assessed as rounded and smaller cells at 1.8 ug/ml after 24 hrs by light microscopy analysis. It counts as functional, cell-based.
The test system of data set [17] is A549. Put plainly: Cytotoxicity against human A549 cells after 72 hrs by [3H]-thymidine uptake assay. It counts as functional, cell-based.
For data set [18], the system named is MDA-MB-231. Briefly: Cytotoxicity against human MDA-MB-231 cells after 72 hrs by [3H]-thymidine uptake assay. It counts as functional, cell-based.
Data set [19] has as its system HT-29. Put plainly: Cytotoxicity against human HT-29 cells assessed as growth inhibition at 2 ug/ml after 72 hrs by [3H]-thymidine uptake assay. It counts as functional. As to conditions: read-out: GI.
In data set [20] the test system is HCT-15. Put plainly: Cytotoxicity against human HCT15 cells after 72 hrs by [3H]-thymidine uptake assay. It counts as functional, cell-based.
In data set [21] the test system is MDA-MB-231. Briefly: Cytotoxicity against human MDA-MB-231 cells assessed as growth inhibition at 2 ug/ml after 72 hrs by [3H]-thymidine uptake assay. It counts as functional. To be noted: read-out: GI.
Data set [22] concerns HeLa. Put plainly: Cytotoxicity against human HeLa cells after 72 hrs by [3H]-thymidine uptake assay. It counts as functional, cell-based.

Regarding `CC(C)C[C@@H]1NC(=O)[C@H](Cc2ccccc2)NC(=O)[C@H](CC(C)C)NC(=O)[C@H](C(C)C)NC(=O)[C@H](CC(C)C)NC1=O` (cyclo(FLLVL)), the inhibition of growth at 20 µg/mL worked out at 21.5% in [1]; 23.6% in [2]; 26.6% in data set [3]; 23.1% in data set [5]; 45.3% in data set [6]. Also, the IC50 in data set [4] is 0.98 µg/mL (≈ 1.67 µM).
For the compound `CC(C)C[C@@H]1NC(=O)[C@H](C(C)C)NC(=O)[C@H](CC(C)C)OC(=O)[C@H](CC(C)C)NC(=O)[C@H](Cc2ccccc2)NC1=O` (cyclo(FL[Hica(2S)]VL)), the IC50 in data set [4] was found to be 9.8 µg/mL (≈ 16.7 µM).
Regarding `COc1ccc(C[C@@H]2NC(=O)[C@H](CC(C)C)NC(=O)[C@H](C(C)C)NC(=O)[C@H](CC(C)C)NC(=O)[C@H](CC(C)C)NC2=O)cc1` (cyclo(LLVLY(Me))), the inhibition of growth at 2 µg/mL in data set [7] was found to be 78.8%; in data set [9], 50.9%; in data set [11], 91.3%; in [12] it was 86.5%; in [19], 76.4%; in data set [21], 40.5%. The outcome in data set [8], in data set [15] and in [16] was Active. Moreover, the half-inhibitory concentration (IC50) in data set [10] stood at 2.87 µM; in data set [14], 3.38 µM; in [17] it was 2.41 µM; in data set [18], 11.1 µM; in data set [20], 3.54 µM; in [22], 3.22 µM. Also, the inhibition of growth at 20 µg/mL was found to be 88.5% in data set [1]; 43.2% in data set [2]; 98.2% in data set [3]; 80.8% in [5]; 93.8% in data set [6]. In data set [13], the Activity entry is recorded as “Non-toxic”.
Turning to `CC(C)C[C@@H]1NC(=O)[C@H](Cc2ccc(O)cc2)NC(=O)[C@H](CC(C)C)NC(=O)[C@H](C(C)C)NC(=O)[C@H](CC(C)C)NC1=O` (cyclo(LLVLY)), the inhibition of growth at 20 µg/mL in data set [1] was 34.6%; in data set [2] it was 42.5%; in data set [5], 52%.
For `CC(C)C[C@@H]1NC(=O)[C@H](Cc2ccc(Cl)cc2)NC(=O)[C@H](CC(C)C)NC(=O)[C@H](C(C)C)NC(=O)[C@H](CC(C)C)NC1=O` (cyclo(LLVL[Phe(4-Cl)])), the inhibition of growth at 20 µg/mL in data set [1] stood at 1.23%; in data set [2], 15%; in [3] it was 5.2%; in data set [5], 1.21%; in data set [6], 3.57%.
For `CC(C)C[C@@H]1NC(=O)[C@H](Cc2ccc(F)cc2)NC(=O)[C@H](CC(C)C)NC(=O)[C@H](C(C)C)NC(=O)[C@H](CC(C)C)NC1=O` (cyclo(LLVL[Phe(4-F)])), in that order: 0%, 12.3%, 30.8%, 21% and 58.2%.
With `CC(C)C[C@@H]1NC(=O)[C@H](Cc2ccc(I)cc2)NC(=O)[C@H](CC(C)C)NC(=O)[C@H](C(C)C)NC(=O)[C@H](CC(C)C)NC1=O` (cyclo(LLVL[Phe(4-I)])), in data set [4], half-maximal inhibition (IC50) was put at 1.12 µg/mL (≈ 1.57 µM).
Take `CC(C)C[C@@H]1NC(=O)[C@H](C(C)C)NC(=O)[C@H](CC(C)C)OC(=O)[C@H](CC(C)C)NC(=O)[C@H](Cc2ccc(Br)cc2)NC1=O` (cyclo(L[Phe(4-Br)]L[Hica(2S)]V)): 4.5 µg/mL (≈ 6.76 µM) corresponded to half-maximal inhibition in [4] (IC50).
On the same count and under the same terms, as for `CC(C)C[C@@H]1NC(=O)[C@H](C(C)C)NC(=O)[C@H](CC(C)C)OC(=O)[C@H](CC(C)C)NC(=O)[C@H](Cc2ccc(I)cc2)NC1=O` (cyclo(L[Phe(4-I)]L[Hica(2S)]V)), the figure is 11.3 µg/mL (≈ 15.9 µM).
Consider `CC(C)C[C@@H]1NC(=O)[C@H](Cc2ccc(Br)cc2)NC(=O)[C@H](CC(C)C)NC(=O)[C@H](C(C)C)NC(=O)[C@H](CC(C)C)NC1=O` (cyclo([Phe(4-Br)]LLVL)), for which the inhibition of growth at 20 µg/mL in data set [1] worked out at 80.2%; in data set [2] it was 89.3%; in data set [5], 74.3%. This compound also came in with an IC50 in data set [4] of 0.58 µg/mL (≈ 0.873 µM).
